# Reference: PMC9694711, “Synthesis of Paclitaxel Derivatives for Remote Loading into Liposomes and Improved Therapeutic Effect” (Molecules, 2022)
# Key:
# [1] = test system: colon cancer cell line HCT-116; test: MTT assay, cytotoxicity on HCT-116; type: cell-based, human; details: for GI50: Homo sapiens, HCT-116, MTT, 72 h, mean of two independent determinations; for TI (LO2/HCT-116): therapeutic index, GI50 LO2 / GI50 HCT-116
# Experimental: (§1) MTT assay was applied to verify the rationality of the molecular combination strategy. The cytotoxicity of the compounds was evaluated on lung cancer cell line A549, colon cancer cell line HCT-116, breast cancer cell line 4T1 and normal hepatocyte cell line LO2. Paclitaxel was used as a positive drug. […] The therapeutic index (TI) for LO2/HCT-116, LO2/A549 and LO2/4T1 of active compounds 4a, 4d, 13a, 17a, 17c and paclitaxel are shown in Table 2.
# (§2) Cells were inoculated in 96-well plates (cell density 2 × 10^4 cells/well) followed by incubation for 24 h at 37 °C. Paclitaxel and target compounds were added to the corresponding well. Subsequently, the cultures were incubated for 72 h. After the MTT solution (50 µL, 2 mg/mL) was added to cultures, the plates were incubated for an additional 4 h. Purple colored formazan crystals were dissolved in 200 µL DMSO, and the absorbance was recorded at 570 nm using Synergy HT, Bio-Tek (Winooski, VT, USA).
# [2] = test system: normal hepatocyte cell line LO2; test: MTT assay, cytotoxicity on normal cell LO2; type: cell-based; details: Hepatocyte; MTT, 72 h; mean of two independent determinations
# Experimental: as §1, §2
# [3] = test system: breast cancer cell line 4T1; test: MTT assay, cytotoxicity on 4T1; type: cell-based, mouse; details: for GI50: Mus musculus, MTT, 72 h, mean of two independent determinations; for TI (LO2/4T1): therapeutic index, GI50 LO2 / GI50 4T1
# Experimental: as §1, §2
# [4] = test system: lung cancer cell line A549; test: MTT assay, cytotoxicity on A549; type: cell-based, human; details: for GI50: Homo sapiens, A549, MTT, 72 h, mean of two independent determinations; for TI (LO2/A549): therapeutic index, GI50 LO2 / GI50 A549
# Experimental: as §1, §2
# [5] = Liposome loading with copper ion gradients (encapsulation efficiency by HPLC); type: physicochemical; details: copper ion gradient
# Excerpt: Vyxeos® is a liposomal formulation of a fixed molar ratio (1:5) combination of the antineoplastic drugs daunorubicin (DN) and cytarabine (Cyt). Daunorubicin is subsequently actively encapsulated with high efficiency through complexation with intra-liposomal copper. The copper gluconate buffer forms a complex with daunorubicin at a ratio of 1:1 to 1:2 [25]. Referring to Vyxeos®, copper ion was selected as a complexed metal ion in the inner phase. […] Therefore, compound 4d was selected to investigate the effect of the anions on the loading efficiency. Among them, only the neutral gluconate copper was a suitable inner phase to facilitate the encapsulation of compound 4d (Table 3).
# (§3) The reason for the stability of the neutral formulations was potentially due to the fact that PBA was effectively […] and interacted with copper more tightly in the neutral condition compared with the acidic condition. Thus, the neutral Cu-gluconate was selected as the inner phase. The concentration of copper ions was also investigated, showing that the higher the copper concentration, the higher the EE. Considering the safety of copper ions, 300 mM was chosen. […] The EE of compound 4d active loading liposome was more than 95% with copper ion gradient. Furthermore, we also evaluated the ATP and saccharides as remote gradients with the optimal formulation of copper ion gradients.
# (§4) Blank liposomes were prepared for membrane hydration. HSPC, chol and DSPE-PEG2000 were dissolved using chloroform at a mass ratio of 3:1:0.02 and then spin-evaporated at 37 °C. The obtained film was then hydrated with 300 mM Cu-Glu (pH 7.4) at 65 °C for 30 min. The multi-layer vesicles were subsequently put into an extruder and passed through polycarbonate membranes with pore sizes of 400 nm, 200 nm and 100 nm 12 times at 65 °C containing 20 mM HEPES, 15 mM EDTA and 300 mM sucrose for removing the un-encapsulated Cu^2+, and then EDTA was removed with 20 mM HEPES and 300 mM sucrose buffer (pH 7.4, adjusted with triethylamine). Compound 4d was dissolved in DMSO and slowly added into the liposome at 65 °C for 30 min and then quenched in an ice bath for 5 min (the drug to lipid ratio was 1:10). The encapsulation efficiency and drug loading efficiency of compound 4d were determined using HPLC. The morphologies of liposomes were characterized using a transition electron microscope (TEM, Hitachi HT7700, Tokyo, Japan); then, their size, PDI and Zeta potential were measured using a Zetasizer Nano ZS90 (Malvern, UK).
# [6] = Liposome loading with calcium acetate gradients; type: physicochemical; details: sediment precipitated after loading
# Excerpt: Since boronic acid RB(OH)2 is not only a weak acid, but also a structure that can complex with copper ions, ATP and saccharides, we investigated whether different inner phases could be employed to encapsulate compounds (4a, 4d, 13a, 17a, 17c) with good therapeutic index.
# 4T1 xenograft tumor = test: In vivo antitumor efficacy and toxicity, 4T1 tumor model; details: 8 mg/kg, 4 times; mice bearing 4T1 tumor
# Experimental: A549 and HCT-116 cells are human tumor cells, while 4T1 cells are mouse tumor cells. Based on the availability of the tumor model, mice bearing a 4T1 xenograft tumor were used to study the in vivo antitumor efficacy of the compound 4d liposome. As depicted in Figure 6a, there was difference between compound 4d (8 mg/kg) and the paclitaxel control group (8 mg/kg).
# The antitumor effect was evaluated by the nude mice armpit tumor model bearing breast cancer 4T1 cells. When the average tumor volume reached 100 mm^3, the treatment was initiated at a 3-day interval for 12 days. The mice were randomly divided into five groups (n = 5 per group) receiving different palictaxel at 8 mg/kg as follows: saline (the control group), taxol, compound 4d, compound 4d liposome, high dose 4d liposome (3 times the dose, immediately 24 mg/kg). Tumor volume (V = length × width^2/2) and body weight were recorded. At the end of the experiment, mice were sacrificed. The obtained tumors were accurately weighed to calculate the tumor burden (Wtumor/Wbody) and tumor inhibition rate [TIR= (Wcontrol tumor − Wsample tumor)/Wcontrol tumor].
# [7] = Characterisation of compound 4d liposome (size, PDI, zeta potential, loading, storage stability); type: physicochemical; details: optimal formulation, drug to lipid ratio 1:10
# Experimental: The morphology of compound 4d liposome is shown in Figure 3 and Figure 4, with spherical particles, a narrow size distribution at ~110 nm and zeta potential at ~−15 mV (Table S2).
# as §4
# [8] = Liposome loading with ATP and saccharides gradients; type: physicochemical; details: gradient ATP
# Experimental: as §3
# Thus, the copper ion gradient was chosen for further experiments.
# Blank liposomes were prepared for membrane hydration. HSPC, chol and DSPE-PEG2000 were dissolved using chloroform at a mass ratio of 3:1:0.02 and then spin-evaporated at 37 °C. The obtained film was then hydrated with 300 mM Cu-Glu (pH 7.4) at 65 °C for 30 min. […] The encapsulation efficiency and drug loading efficiency of compound 4d were determined using HPLC. The morphologies of liposomes were characterized using a transition electron microscope (TEM, Hitachi HT7700, Tokyo, Japan); then, their size, PDI and Zeta potential were measured using a Zetasizer Nano ZS90 (Malvern, UK).
Structure (SMILES),GI50 [1],TI (LO2/HCT-116) [1],GI50 [2],GI50 [3],TI (LO2/4T1) [3],GI50 [4],TI (LO2/A549) [4],"loading into liposomes, copper ion as complexed metal ion in the inner phase [5]",encapsulation into liposomes by calcium acetate gradients [6],"inhibition % at fixed concentration, HCT-116 (printed in GI50 column) ([1]; @6.25 nM)",tumor inhibition rate (4T1 xenograft tumor),"inhibition % at fixed concentration, A549 (printed in GI50 column) ([4]; @6.25 nM)","inhibition % at fixed concentration, 4T1 (printed in GI50 column) ([3]; @100 nM)",Loading efficiency (%) [7],loading with inner phase of ATP [8],"Encapsulated efficiency, optimal formulation ([5]; drug-to-lipid ratio of 0.1 w/w (1:10))"
"CC(=O)OC1C(=O)C2(C)C(O)CC3OCC3(OC(C)=O)C2C(OC(=O)c2ccccc2)C2(O)CC(OC(=O)C(OC(=O)CCB(O)O)C(NC(=O)c3ccccc3)c3ccccc3)C(C)=C1C2(C)C (stereo not shown) [Compound 17a, 2’-O-[3-boronopropanoyl]taxol]",7.98 nM,89.5,715 nM,68.1 nM,10.5,21.8 nM,32.7,failed in loading into the liposomes,not feasible,,,,,,,
CC(=O)O[C@H]1C(=O)[C@@]2(C)[C@H]([C@H](OC(=O)c3ccccc3)[C@]3(O)C[C@H](OC(=O)[C@H](O)[C@@H](NC(=O)c4ccccc4)c4ccccc4)C(C)=C1C3(C)C)[C@]1(OC(C)=O)CO[C@@H]1C[C@@H]2O [paclitaxel],,,69.1 nM,25.3 nM,2.7,,,,,81.86%@6.25 nM,58.5%,64.96%@6.25 nM,,,,
"CC(=O)OC1C(=O)C2(C)C(O)CC3OCC3(OC(C)=O)C2C(OC(=O)c2ccccc2)C2(O)CC(OC(=O)C(OC(=O)CCCCB(O)O)C(NC(=O)c3ccccc3)c3ccccc3)C(C)=C1C2(C)C (stereo not shown) [Compound 17c, 2’-O-[5-boronopentanoyl]taxol]",6.38 nM,222.1,1420 nM,87.2 nM,16.3,44.8 nM,31.6,failed in loading into the liposomes,not feasible,,,,,,,
"CC(=O)OC1C(=O)C2(C)C(O)CC3OCC3(OC(C)=O)C2C(OC(=O)c2ccccc2)C2(O)CC(OC(=O)C(OC(=O)CCC(=O)OCc3ccc(B(O)O)cc3)C(NC(=O)c3ccccc3)c3ccccc3)C(C)=C1C2(C)C (stereo not shown) [Compound 4a, 2’-O-[4-((4-boronobenzyl)oxy)-4-oxobutyryl]taxol]",73.7 nM,25.4,1880 nM,,,68.5 nM,27.4,failed in loading into the liposomes,not feasible,,,,20.85%@100 nM,,,
"CC(=O)OC1C(=O)C2(C)C(O)CC3OCC3(OC(C)=O)C2C(OC(=O)c2ccccc2)C2(O)CC(OC(=O)C(OC(=O)OCc3ccc(B(O)O)cc3)C(NC(=O)c3ccccc3)c3ccccc3)C(C)=C1C2(C)C (stereo not shown) [Compound 13a, 2’-O-[4-boronobenzyl carbonate]taxol]",8.73 nM,111.3,972 nM,92.9 nM,10.5,22.5 nM,43.3,failed in loading into the liposomes,not feasible,,,,,,,
"CC(=O)OC1C(=O)C2(C)C(O)CC3OCC3(OC(C)=O)C2C(OC(=O)c2ccccc2)C2(O)CC(OC(=O)C(OC(=O)CSSCC(=O)OCc3ccc(B(O)O)cc3)C(NC(=O)c3ccccc3)c3ccccc3)C(C)=C1C2(C)C (stereo not shown) [Compound 4d, 2’-O-[2-((2-((4-boronobenzyl)oxy)-2-oxoethyl)disulfaneyl)acetyl]taxol]",13 nM,49.1,639 nM,69.8 nM,9.2,13.9 nM,45.9,,not feasible,,,,,9.02%,not successful,> 95%
